Experimental findings from patent US20070254312A1, “Protein Kinase Inhibitors and Methods for Identiying Same” (priority 2004, published 2007) are described below.

What all share (assay type): biochemical
Test [1] addresses T1, PKCζ (Homo sapiens, UniProt Q05513).
T1 sequence (Q05513 1-592): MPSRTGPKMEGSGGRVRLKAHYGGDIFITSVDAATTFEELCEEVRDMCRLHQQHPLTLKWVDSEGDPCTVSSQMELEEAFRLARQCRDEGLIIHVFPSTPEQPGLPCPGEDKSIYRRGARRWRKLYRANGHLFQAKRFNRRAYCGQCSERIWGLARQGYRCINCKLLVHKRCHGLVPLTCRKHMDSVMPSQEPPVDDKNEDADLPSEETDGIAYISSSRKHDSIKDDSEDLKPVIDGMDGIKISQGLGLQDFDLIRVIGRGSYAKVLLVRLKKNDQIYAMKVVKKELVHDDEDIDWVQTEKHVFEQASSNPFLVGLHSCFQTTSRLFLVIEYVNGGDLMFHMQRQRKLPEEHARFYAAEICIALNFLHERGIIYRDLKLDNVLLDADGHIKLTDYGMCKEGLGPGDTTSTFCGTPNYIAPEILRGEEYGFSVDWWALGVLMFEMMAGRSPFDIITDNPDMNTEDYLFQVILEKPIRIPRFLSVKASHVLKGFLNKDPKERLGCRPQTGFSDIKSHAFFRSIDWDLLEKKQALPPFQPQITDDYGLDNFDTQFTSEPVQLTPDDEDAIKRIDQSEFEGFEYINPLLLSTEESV
The test is described as follows: PKC ζ screen, IC50 and Ki determination (Example 2). More on the design: purchased Panvera. How it is done: (§1) Protein Kinase C Assays. The peptides […] (for PKC α, β and γ) and […] (for PKC δ, ε, θ, η, τ, and ζ) were used as substrates. […] Total reaction volume in each well was 50 μL. […] Following an additional 5 min incubation at ambient temperature, 75 μL from each reaction well was transferred into each well of a Unifilter (P81 cellulose phosphate paper) assay plate and washed four times with 0.1% phosphoric acid in water. […] Lead compounds from the library were combined into a single 96 well plate and re-assayed as described above in order to identify the best inhibitor. IC50 determinations of resynthesized inhibitor leads for individual PKC isoforms. Assays were performed in triplicate at pH 7.5 and thermostatically maintained at 30° C. using a Boekel constant temperature device. […] The IC50 values for pure compounds as inhibitors were calculated based on the experimental data using GraFit (Erithacus Software Limited). Protein kinase C δ, ε, θ, and η: As described for PKC α, β, and γ except that the assay was performed in the absence of CaCl2. Protein kinase C τ and ζ: As described for PKC α, β, and γ except that the assay was performed in the absence of CaCl2 and DAG. […] Total reaction volume in each well was 50 μL. All the wells were tested in the same plate and each concentration was tested in triplicate. […] Double reciprocal plots were obtained at different concentrations of substrates. Ki values were calculated using Enzyme Kinetics, SigmaPlot (SPSS Inc.).

Test [2] addresses T2, PKCε (Homo sapiens, UniProt Q02156).
T2 sequence (Q02156 1-737): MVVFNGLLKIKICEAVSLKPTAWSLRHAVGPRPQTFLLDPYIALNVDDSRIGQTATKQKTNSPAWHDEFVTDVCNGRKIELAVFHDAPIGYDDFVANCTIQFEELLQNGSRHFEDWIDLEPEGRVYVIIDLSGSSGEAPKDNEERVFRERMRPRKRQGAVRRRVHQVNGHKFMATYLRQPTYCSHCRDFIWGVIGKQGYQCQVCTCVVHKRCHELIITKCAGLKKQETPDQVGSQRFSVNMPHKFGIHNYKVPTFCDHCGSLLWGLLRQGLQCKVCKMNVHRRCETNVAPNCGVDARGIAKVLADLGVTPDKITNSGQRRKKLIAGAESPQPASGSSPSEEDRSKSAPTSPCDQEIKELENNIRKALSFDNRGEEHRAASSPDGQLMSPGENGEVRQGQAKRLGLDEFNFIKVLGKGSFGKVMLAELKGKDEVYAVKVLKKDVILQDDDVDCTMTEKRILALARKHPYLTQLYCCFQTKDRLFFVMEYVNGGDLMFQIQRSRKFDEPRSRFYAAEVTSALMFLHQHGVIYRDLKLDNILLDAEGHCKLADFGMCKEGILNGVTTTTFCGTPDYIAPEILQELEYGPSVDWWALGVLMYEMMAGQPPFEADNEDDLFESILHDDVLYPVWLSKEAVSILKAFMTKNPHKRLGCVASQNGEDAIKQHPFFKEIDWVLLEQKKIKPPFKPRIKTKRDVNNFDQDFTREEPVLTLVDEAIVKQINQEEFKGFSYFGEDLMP
The test can be described thus: IC50 determination for individual PKC isoforms (Example 2). More on the design: purchased Panvera. The protocol: (§2) Protein Kinase C Assays. The peptides […] (for PKC α, β and γ) and […] (for PKC δ, ε, θ, η, τ, and ζ) were used as substrates. IC50 determinations of resynthesized inhibitor leads for individual PKC isoforms. Assays were performed in triplicate at pH 7.5 and thermostatically maintained at 30° C. using a Boekel constant temperature device. […] The IC50 values for pure compounds as inhibitors were calculated based on the experimental data using GraFit (Erithacus Software Limited). Protein kinase C δ, ε, θ, and η: As described for PKC α, β, and γ except that the assay was performed in the absence of CaCl2. Protein kinase C τ and ζ: As described for PKC α, β, and γ except that the assay was performed in the absence of CaCl2 and DAG.

Test [3] has as its target PKCη (Homo sapiens, UniProt P24723). The description is as above. More on the design: purchased Panvera. How it is done: as §2
For test [4], the target named is PKCγ (Homo sapiens, UniProt P05129). Described as above. More on the design: purchased Panvera. How it is done: as §2
In test [5] the target is PKCθ (Homo sapiens, UniProt Q04759). The test is described as above. More on the design: purchased Panvera. The protocol:
as §2

Test [6] has as its target PKCδ (Homo sapiens, UniProt Q05655). The test can be described thus: PKC δ screen, IC50 and Ki determination (Example 2). More on the design: purchased Panvera. The protocol: as §1
Test [7] addresses PKCα (Homo sapiens, UniProt P17252). The test can be described thus: IC50 determination for individual PKC isoforms (Example 2). How it is done: as §2
In test [8] the target is T3, PKC βI (Homo sapiens, UniProt P05771).
T3 construct: purchased Panvera
The description is as above. The protocol: as §2

Test [9] addresses T4, PKC ι (Homo sapiens, UniProt P41743).
T4 construct: purchased Panvera
T4 sequence (P41743 1-596): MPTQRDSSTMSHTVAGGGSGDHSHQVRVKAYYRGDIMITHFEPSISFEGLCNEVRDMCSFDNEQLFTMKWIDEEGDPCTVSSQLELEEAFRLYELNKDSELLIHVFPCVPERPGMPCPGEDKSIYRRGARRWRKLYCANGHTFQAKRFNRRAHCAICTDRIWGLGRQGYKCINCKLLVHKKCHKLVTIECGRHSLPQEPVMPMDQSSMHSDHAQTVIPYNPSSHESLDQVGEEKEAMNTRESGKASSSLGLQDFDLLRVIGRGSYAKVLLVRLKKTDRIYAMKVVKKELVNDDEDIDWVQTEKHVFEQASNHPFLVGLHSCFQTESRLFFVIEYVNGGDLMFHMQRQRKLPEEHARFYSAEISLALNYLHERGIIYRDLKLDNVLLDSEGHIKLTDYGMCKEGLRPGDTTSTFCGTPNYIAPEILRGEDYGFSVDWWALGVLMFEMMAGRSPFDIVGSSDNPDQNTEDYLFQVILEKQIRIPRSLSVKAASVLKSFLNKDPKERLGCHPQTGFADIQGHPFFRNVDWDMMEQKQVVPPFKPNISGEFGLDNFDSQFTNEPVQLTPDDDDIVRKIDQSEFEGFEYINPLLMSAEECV
The test is described as above. How it is done:
as §2

Where [10] appears, read: relative to most potently inhibited isoform (=1): δ for F, ζ for G.

Each structure is given as a SMILES string. Starred links: 1 amine or outer side, 2 acyl side, 3 side chain; linkers in the order of their positions; H or OH if unused. Non-standard residues stand in square brackets, D forms with d. Residues, ends and D or L forms follow the SMILES beside them. Groups on a side chain read outwards from the residue. *: point of attachment. X2 = N=C(N)NCCC[C@@H](C(=O)*)N(Cc1cccc(O)c1O)Cc1cccc(O)c1O; Benzoyl(4-NO2) = O=C(c1ccc([N+](=O)[O-])cc1)*; Cysteamide = C(CS[*:3])N[*:1]; Dap = NC[C@H](N)C(=O)O

T3 sequence (P05771 whole entry): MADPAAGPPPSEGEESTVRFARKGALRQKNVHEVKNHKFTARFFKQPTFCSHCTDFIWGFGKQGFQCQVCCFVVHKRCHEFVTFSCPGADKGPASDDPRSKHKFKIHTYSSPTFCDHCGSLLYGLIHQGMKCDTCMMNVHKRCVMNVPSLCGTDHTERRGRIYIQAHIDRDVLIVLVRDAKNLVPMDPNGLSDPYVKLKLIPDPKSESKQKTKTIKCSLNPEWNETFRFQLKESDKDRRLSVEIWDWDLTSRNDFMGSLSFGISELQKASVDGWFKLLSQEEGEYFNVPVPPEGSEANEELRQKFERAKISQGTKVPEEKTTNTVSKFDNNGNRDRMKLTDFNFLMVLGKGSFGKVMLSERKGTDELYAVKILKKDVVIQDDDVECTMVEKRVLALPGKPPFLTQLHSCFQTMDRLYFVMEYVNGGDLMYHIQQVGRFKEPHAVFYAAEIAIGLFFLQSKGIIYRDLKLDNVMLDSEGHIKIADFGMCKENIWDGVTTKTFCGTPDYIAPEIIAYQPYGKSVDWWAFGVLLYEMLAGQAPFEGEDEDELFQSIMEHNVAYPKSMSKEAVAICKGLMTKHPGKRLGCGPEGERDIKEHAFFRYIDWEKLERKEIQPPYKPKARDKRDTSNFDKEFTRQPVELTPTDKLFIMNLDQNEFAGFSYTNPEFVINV
PKCδ, sequence (Q05655 whole entry, canonical isoform): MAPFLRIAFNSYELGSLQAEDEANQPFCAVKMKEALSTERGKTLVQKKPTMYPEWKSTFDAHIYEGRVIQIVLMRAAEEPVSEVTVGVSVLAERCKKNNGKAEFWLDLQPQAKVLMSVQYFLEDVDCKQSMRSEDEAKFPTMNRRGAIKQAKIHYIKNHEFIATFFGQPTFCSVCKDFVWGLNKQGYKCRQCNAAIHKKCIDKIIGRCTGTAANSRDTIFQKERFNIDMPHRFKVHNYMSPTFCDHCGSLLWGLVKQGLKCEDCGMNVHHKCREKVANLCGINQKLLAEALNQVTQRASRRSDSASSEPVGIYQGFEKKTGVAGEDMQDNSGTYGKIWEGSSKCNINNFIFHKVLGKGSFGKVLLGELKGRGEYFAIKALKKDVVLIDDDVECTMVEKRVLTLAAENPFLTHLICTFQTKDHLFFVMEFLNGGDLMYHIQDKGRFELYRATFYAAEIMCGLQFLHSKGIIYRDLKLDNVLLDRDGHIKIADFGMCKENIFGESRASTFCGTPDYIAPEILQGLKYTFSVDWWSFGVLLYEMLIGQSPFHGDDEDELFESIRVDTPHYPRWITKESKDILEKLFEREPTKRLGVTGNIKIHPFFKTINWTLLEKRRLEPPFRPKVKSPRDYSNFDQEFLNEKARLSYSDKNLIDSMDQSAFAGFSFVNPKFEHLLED
PKCθ, sequence (Q04759 whole entry): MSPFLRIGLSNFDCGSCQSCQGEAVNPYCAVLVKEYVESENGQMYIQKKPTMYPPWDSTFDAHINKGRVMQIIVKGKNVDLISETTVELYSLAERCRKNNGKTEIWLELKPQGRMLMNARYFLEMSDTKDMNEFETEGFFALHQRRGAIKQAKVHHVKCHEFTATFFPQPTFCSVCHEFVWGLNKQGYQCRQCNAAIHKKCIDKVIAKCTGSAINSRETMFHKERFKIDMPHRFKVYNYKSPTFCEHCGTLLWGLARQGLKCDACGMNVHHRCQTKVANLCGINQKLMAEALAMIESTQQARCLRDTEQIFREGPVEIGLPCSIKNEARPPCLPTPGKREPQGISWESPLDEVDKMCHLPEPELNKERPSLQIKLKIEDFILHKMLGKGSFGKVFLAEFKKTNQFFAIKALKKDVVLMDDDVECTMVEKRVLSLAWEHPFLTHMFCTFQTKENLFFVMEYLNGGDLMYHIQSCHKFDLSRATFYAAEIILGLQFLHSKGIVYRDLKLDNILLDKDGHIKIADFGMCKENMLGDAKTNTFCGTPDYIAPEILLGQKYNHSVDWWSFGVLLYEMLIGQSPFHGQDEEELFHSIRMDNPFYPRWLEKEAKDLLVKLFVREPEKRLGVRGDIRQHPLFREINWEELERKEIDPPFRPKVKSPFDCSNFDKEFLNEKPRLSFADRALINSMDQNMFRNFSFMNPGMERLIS
PKCη, sequence (P24723 whole entry): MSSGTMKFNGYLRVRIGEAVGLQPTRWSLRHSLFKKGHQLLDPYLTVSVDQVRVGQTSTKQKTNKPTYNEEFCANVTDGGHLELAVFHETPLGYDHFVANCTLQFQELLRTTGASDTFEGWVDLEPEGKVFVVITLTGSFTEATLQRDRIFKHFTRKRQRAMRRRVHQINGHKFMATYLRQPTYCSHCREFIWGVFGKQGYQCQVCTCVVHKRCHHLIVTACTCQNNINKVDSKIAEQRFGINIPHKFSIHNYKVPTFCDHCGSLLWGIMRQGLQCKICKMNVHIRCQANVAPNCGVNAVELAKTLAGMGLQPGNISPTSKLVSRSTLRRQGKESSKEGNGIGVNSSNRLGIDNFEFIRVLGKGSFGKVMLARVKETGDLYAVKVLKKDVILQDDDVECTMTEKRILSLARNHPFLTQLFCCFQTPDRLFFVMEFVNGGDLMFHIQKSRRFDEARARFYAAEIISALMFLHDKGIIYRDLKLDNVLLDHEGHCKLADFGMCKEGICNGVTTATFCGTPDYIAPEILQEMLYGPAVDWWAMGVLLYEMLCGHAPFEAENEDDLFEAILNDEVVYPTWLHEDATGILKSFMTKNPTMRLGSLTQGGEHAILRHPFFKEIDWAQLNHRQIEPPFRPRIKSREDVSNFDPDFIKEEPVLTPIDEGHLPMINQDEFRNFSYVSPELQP

Take `CSCC[C@H](NC(=O)[C@H](Cc1ccccc1)NC(=O)[C@H](CNC(=O)CNC(=O)c1ccc([N+](=O)[O-])cc1)NC(=O)CNC(=O)[C@H](CCC(N)=O)NC(=O)[C@H](CCCNC(=N)N)NC(=O)[C@@H](N)CCCNC(=N)N)C(=O)N[C@@H](Cc1ccc(O)cc1)C(=O)N[C@@H](Cc1ccccc1)C(=O)NCCS` [Compound E] (H-RRQG[Dap]([Gly-Benzoyl(4-NO2)])FMYF-Cysteamide): the IC50 (usually the point on the concentration scale where inhibition reaches its midpoint) was found to be 22 ± 3 nM in [1], 25 ± 2 nM in test [6], 3100 ± 200 nM in test [7] and 8 ± 0.5 nM in test [8]. Besides, the “Selectivity (Compound E), PKC ζ” value in test [1] (IC50 relative to βI (=1)) is 2.8. The “Selectivity (Compound E), PKC ε” value in test [2] (IC50 relative to βI (=1)) is reported as 287. The “Selectivity (Compound E), PKC η” value in test [3] (IC50 relative to βI (=1)) was 1650. In test [4] (IC50 relative to βI (=1)), the “Selectivity (Compound E), PKC γ” value is 550. In addition, the “Selectivity (Compound E), PKC θ” value in test [5] (IC50 relative to βI (=1)) is listed as 1775. Besides, the “Selectivity (Compound E), PKC δ” value in test [6] (IC50 relative to βI (=1)) is 3.1. Also, the “Selectivity (Compound E), PKC α” value in test [7] (IC50 relative to βI (=1)) is given as 387. Further, the “Selectivity (Compound E), PKC βI” value in test [8] (IC50 relative to βI (=1)) stood at 1. Moreover, the “Selectivity (Compound E), PKC ι” value in test [9] (IC50 relative to βI (=1)) is reported as 94.

Turning to `CSCC[C@H](NC(=O)[C@H](Cc1ccccc1)NC(=O)[C@H](CNC(=O)CNC(=O)c1ccc([N+](=O)[O-])cc1)NC(=O)CNC(=O)[C@H](CCC(N)=O)NC(=O)[C@H](CCCNC(=N)N)NC(=O)[C@H](CCCNC(=N)N)N(Cc1cccc(O)c1O)Cc1cccc(O)c1O)C(=O)N[C@@H](Cc1ccc(O)cc1)C(=O)N[C@@H](Cc1ccccc1)C(=O)NCCS` [Compound G] (X2-RQG[Dap]([Gly-Benzoyl(4-NO2)])FMYF-Cysteamide), in [1] (setting [10]), the “Fold selectivity (IC50), PKC ζ” value stood at 1 fold. In addition, in test [2] (setting [10]), the “Fold selectivity (IC50), PKC ε” value is listed as 4600 fold. In addition, in [3] (setting [10]), the “Fold selectivity (IC50), PKC η” value stood at 2040 fold. In test [4] (setting [10]), the “Fold selectivity (IC50), PKC γ” value came to 5093 fold. In [5] (setting [10]), the “Fold selectivity (IC50), PKC θ” value turned out to be 2227 fold. This molecule had an IC50 in [6] of 5200 ± 100 nM. Moreover, the “Fold selectivity (IC50), PKC δ” value in test [6] (setting [10]) was found to be 693 fold. In test [7] (setting [10]), the “Fold selectivity (IC50), PKC α” value was determined as 6333 fold. For the same molecule, in [8] (setting [10]), the “Fold selectivity (IC50), PKC β1” value is reported as 730 fold. In test [9] (relative to most potently inhibited isoform (=1): δ for F, ζ for G, text prints τ), the “Fold selectivity (IC50), PKC ι” value amounted to 1493 fold.
